From patent US11040976B2, “Substrate selective inhibitors of insulin-degrading enzyme (IDE) and uses thereof” (President and Fellows of Harvard College, priority 2015, dated 2021)

Columns and labels:
[1] = molecular target: T1, Human N-His6-IDE42-1019 (E. coli expressed) (Homo sapiens, UniProt P14735); experiment: Fluorescence anisotropy high-throughput screening assay (displacement of probe FL-6b); type: binding
T1 construct: Human N-His6-IDE42-1019 (E. coli expressed); made in house; host or cells: E. coli (Rosetta 2 (DE3) pLysS, plasmid pTrcHis-A)
T1 sequence (P14735 42-1019): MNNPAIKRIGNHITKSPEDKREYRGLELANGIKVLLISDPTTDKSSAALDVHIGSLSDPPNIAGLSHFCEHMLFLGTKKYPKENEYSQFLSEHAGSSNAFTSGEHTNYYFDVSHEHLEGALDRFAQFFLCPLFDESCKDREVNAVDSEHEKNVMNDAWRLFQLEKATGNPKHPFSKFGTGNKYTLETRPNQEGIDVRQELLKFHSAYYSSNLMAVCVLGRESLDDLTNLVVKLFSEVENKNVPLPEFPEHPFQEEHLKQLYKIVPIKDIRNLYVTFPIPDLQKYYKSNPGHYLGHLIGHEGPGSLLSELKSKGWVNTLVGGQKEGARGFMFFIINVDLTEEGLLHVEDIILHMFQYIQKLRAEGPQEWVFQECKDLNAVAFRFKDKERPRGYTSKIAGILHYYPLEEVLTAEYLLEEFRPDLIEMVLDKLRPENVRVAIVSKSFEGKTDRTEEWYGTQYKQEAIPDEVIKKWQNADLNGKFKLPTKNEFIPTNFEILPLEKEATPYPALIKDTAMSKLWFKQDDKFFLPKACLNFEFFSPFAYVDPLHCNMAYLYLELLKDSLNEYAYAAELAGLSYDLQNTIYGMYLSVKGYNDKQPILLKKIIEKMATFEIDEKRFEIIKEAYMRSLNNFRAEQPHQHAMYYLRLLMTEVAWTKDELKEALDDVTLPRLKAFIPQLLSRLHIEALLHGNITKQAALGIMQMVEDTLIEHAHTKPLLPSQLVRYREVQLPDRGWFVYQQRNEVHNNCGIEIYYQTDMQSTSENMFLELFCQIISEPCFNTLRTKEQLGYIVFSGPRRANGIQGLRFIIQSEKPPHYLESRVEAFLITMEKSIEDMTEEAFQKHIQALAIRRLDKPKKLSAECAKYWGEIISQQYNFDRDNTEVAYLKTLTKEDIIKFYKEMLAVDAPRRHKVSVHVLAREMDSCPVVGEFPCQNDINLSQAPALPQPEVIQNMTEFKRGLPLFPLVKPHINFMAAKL
Protocol: The fluorescence anisotropy screening method and probe FL-6b are described in PCT application PCT/US2014/064322, incorporated herein by reference.
Human N-His6-IDE42-1019 (E. coli expressed) was mixed with fluorescein-labeled macrocycle FL-6b:
[drawing 802] in 50 mM Tris buffer pH 8.0, with 1 M NaCl, at 25° C. Optimum signal was obtained using a mixture of […] probe FL-6b and 0.5 μM IDE. The “diversity-oriented (DOS) synthesis informer set” compound plates were pinned onto 384-well plates containing the enzyme-probe mixture (50 μL/well). The azetidine screen was pre-printed on 384-well plates and the enzyme-probe mixture was added (50 μL/well). The final compound concentration was 20 μM. IDE inhibitor 6bK was used as a positive control at a final concentration of 1 μM. After 30 minutes of equilibration, the increase in fluorescence anisotropy was recorded using an EnVision spectrophotometer (excitation 492 nm, emission 523 nm). The fluorescence anisotropy was independently measured twice for each screened compound. The Z-scores for each pair of measurements are plotted in FIG. 1A (DOS informer set) and FIG. 1B (azetidines), and average Z-scores are listed for exemplary compounds in Table E1.
Z-scores were calculated based on the raw anisotropy measured for each well according to Eq. 1, wherein x is the raw anisotropy value of the well, μ is the mean of the anisotropy of the negative control wells (DMSO) for the plate, and σ is the standard deviation in anisotropy of the negative control wells (DMSO) for the plate.

[2] = molecular target: T2, recombinant human IDE42-1019 (Homo sapiens, UniProt P14735); experiment: Protease assay with fluorogenic peptide substrate Mca-[…](Dnp)-OH; type: biochemical; settings: fluorogenic peptide Mca-RPPGFSAFK(Dnp)-OH; for IC50: apparent IC50 for compounds with submaximal inhibition, read-out: IC50 (μM) Proteolysis; for Emax: read-out: Imax (%) Proteolysis (inhibition maximum)
T2 construct: recombinant human IDE42-1019 (R&D Systems); purchased R&D Systems
T2 sequence (P14735 42-1019): T1 sequence (P14735 42-1019)

[3] = final compound concentration 20 μM (6bK control 1 μM), values without asterisk
[4] = plateau at high inhibitor concentration
[5] = values marked *: from the screen using the diversity-oriented synthesis (DOS) informer set of plates, 20 μM

In the case of `Cc1ccccc1-c1ccc(C2C3CN(Cc4ccncc4)CC2N3)cc1` (stereo not drawn) [C3], the “Average Z-score (Fluorescence anisotropy)” value (“Average Z-score” for short) [1, 3] is reported as −9.02, the IC50 [2] is reported as 5 µM and the Emax [2, 4] is reported as 70%.

`COc1ccccc1-c1ccc(C2C3CN(C(=O)c4cccnc4)CC2N3)cc1` (stereo not drawn) [C4] was tested, and the “Average Z-score” value [1, 3] was −13.76, the IC50 [2] was 7.5 µM and the Emax [2, 4] was 70%.

With `Cc1ccccc1-c1ccc(C2C3CN(C(=O)C4CCCCC4)CC2N3)cc1` (stereo not drawn) [C6] the “Average Z-score” value [1, 3] was −13.8, the IC50 [2] was 2 µM and the Emax [2, 4] was 60%.

With `Cc1ccccc1-c1ccc(C2C3CN(C(=O)C4CCOCC4)CC2N3)cc1` (stereo not drawn) [C7] the “Average Z-score” value [1, 3] was −7.7, the IC50 [2] was 2.5 µM and the Emax [2, 4] was 80%.

`Cc1ccccc1-c1ccc(C2C3CN(Cc4cncnc4)CC2N3)cc1` (stereo not drawn) [C8] was tested, and the “Average Z-score” value [1, 3] was −2.58, the IC50 [2] was 7.5 µM and the Emax [2, 4] was 70%.

With `Cc1ccccc1-c1ccc(C2C3CN(Cc4cocn4)CC2N3)cc1` (stereo not drawn) [C9] the “Average Z-score” value [1, 3] was −3.01, the IC50 [2] was 25 µM and the Emax [2, 4] was greater than 60%.

In the case of `COc1ccccc1-c1ccc([C@H]2[C@@H](CO)N(C(=O)NC(C)C)[C@H]2C#N)cc1` [D2], the “Average Z-score” value [1, 3] is reported as −16.33 and the Emax [2, 4] is reported as 100%.

With `COc1ccccc1-c1ccc([C@@H]2[C@@H](C#N)N(C(=O)NC3CCCCC3)[C@@H]2CO)cc1` [D8] the “Average Z-score” value [1, 3] was −33.77, the IC50 [2] was 1 µM and the Emax [2, 4] was 40%.

`COc1ccccc1-c1ccc([C@@H]2[C@@H](C#N)N(C(=O)c3cccnc3)[C@@H]2CO)cc1` [D9] was tested, and the “Average Z-score” value [1, 3] was −12.03, the IC50 [2] was 7.5 µM and the Emax [2, 4] was 60%.

For `Cc1ccccc1-c1ccc([C@H]2[C@H](CO)N3C(=O)CN(S(C)(=O)=O)C[C@@H]23)cc1` [compound 061], the “Average Z-score” value [1, 3] was −1.36 and the IC50 [2] was greater than 100 µM.

With `Cc1cccc(-c2ccc([C@@H]3[C@@H](CO)N4CCCCN(CCC(F)(F)F)C[C@@H]34)cc2)c1` [compound 073] the “Average Z-score” value [1, 3] was −0.68 and the IC50 [2] was greater than 50 µM.

`Cc1ccccc1-c1ccc([C@H]2[C@@H](CO)N3CCCCN(S(C)(=O)=O)C[C@@H]23)cc1` [compound 077] was tested, and the “Average Z-score” value [1, 3] was −2.31 and the IC50 [2] was greater than 100 µM.

With `Cc1ccccc1-c1ccc([C@@H]2[C@@H](CO)N3C(=O)CN(C(=O)Cc4ccccn4)C[C@@H]23)cc1` [compound 081] the “Average Z-score” value [1, 3] was −19.85, the IC50 [2] was 2.5 µM and the Emax [2, 4] was 50%.

In the case of `Cc1cccc(-c2ccc([C@H]3[C@@H](CO)N4CCCCN(C(=O)c5cccnc5)C[C@H]34)cc2)c1` [compound 091], the “Average Z-score” value [1, 3] is reported as −16.96, the IC50 [2] is reported as 7 µM and the Emax [2, 4] is reported as 70%.

With `Cc1ccccc1-c1ccc([C@@H]2[C@H]3CN(C(=O)c4ccncc4)CC(=O)N3[C@H]2CO)cc1` [compound 102] the “Average Z-score” value [1, 5] was −13.56* and the Emax [2, 4] was 80%.

For `Cc1ccccc1-c1ccc([C@H]2[C@@H](CO)N3CCCCN(C(=O)c4cccnc4)C[C@H]23)cc1` [compound 106], the “Average Z-score” value [1, 3] was −16.48 and the Emax [2, 4] was 80%.

With `Cc1ccccc1-c1ccc([C@H]2[C@H](CO)N3C(=O)CN(C(=O)c4ccc(F)cc4)C[C@@H]23)cc1` [compound 124] the “Average Z-score” value [1, 3] was −16.49 and the Emax [2, 4] was 70%.

For `Cc1ccccc1-c1ccc([C@@H]2[C@H]3CN(C(=O)Cc4ccccn4)CC(=O)N3[C@H]2CO)cc1` [compound 140], the “Average Z-score” value [1, 3] was −17.72, the IC50 [2] was 2.5 µM and the Emax [2, 4] was 50%.

For `COc1ccccc1C#Cc1ccc([C@H]2[C@H]3CN(C(=O)C4CCC4)CCCCN3[C@H]2CO)cc1` [compound 141], the “Average Z-score” value [1, 5] was −17.53* and the IC50 [2] was greater than 100 µM.

`O=C(C1CCOCC1)N1CC(=O)N2[C@H](CO)[C@H](c3ccc(C#Cc4cccc(F)c4)cc3)[C@H]2C1` [compound 142] was tested, and the “Average Z-score” value [1, 3] was −19.27, the IC50 [2] was 6 µM and the Emax [2, 4] was roughly 100%.

For `COc1ccccc1NC(=O)N1CCCCN2[C@H](CO)[C@@H](c3ccc(-c4cccc(C)c4)cc3)[C@@H]2C1` [compound 154], the “Average Z-score” value [1, 3] was −2.84, the IC50 [2] was greater than 10 µM and the Emax [2, 4] was 20%.

For `COc1ccccc1C#Cc1ccc([C@H]2[C@H](CO)N3CCCCN(C(=O)C4CCC4)C[C@@H]23)cc1` [compound 180], the “Average Z-score” value [1, 5] was −12.26* and the Emax [2, 4] was 80%.

For `O=C(CC1CC1)N1CC(=O)N2[C@H](C1)[C@H](c1ccc(C#Cc3ccccc3)cc1)[C@@H]2CO` [compound 187], the “Average Z-score” value [1, 3] was −15.91 and the IC50 [2] was greater than 20 µM.

`Cc1ccccc1-c1ccc([C@@H]2[C@@H](CO)N3CCCCN(S(=O)(=O)c4ccc(F)cc4)C[C@@H]23)cc1` [compound 217] was tested, and the “Average Z-score” value [1, 3] was −17.51 and the Emax [2, 4] was 40%.

With `Cc1ccccc1-c1ccc([C@H]2[C@@H](CO)N3CCCCN(C(=O)Nc4ccc(F)cc4)C[C@@H]23)cc1` [compound 226] the “Average Z-score” value [1, 3] was −1.67 and the Emax [2, 4] was 30%.

For `Cc1ccccc1-c1ccc([C@H]2[C@@H](CO)N3CCCCN(S(=O)(=O)Cc4ccccc4)C[C@@H]23)cc1` [compound 236], the “Average Z-score” value [1, 3] was −1.64 and the IC50 [2] was greater than 200 µM.

In the case of `Cc1ccccc1-c1ccc([C@H]2[C@@H](CO)N3CCCCN(C(=O)NC4CCCC4)C[C@H]23)cc1` [compound 255], the “Average Z-score” value [1, 3] is reported as −17.33 and the Emax [2, 4] is reported as 50%.

In the case of `Cc1ccccc1-c1ccc([C@H]2[C@@H](CO)N3CCCCN(C(=O)Nc4cccc(F)c4)C[C@@H]23)cc1` [compound 269], the “Average Z-score” value [1, 3] is reported as −4.36 and the Emax [2, 4] is reported as 30%.

For `Cc1cccc(-c2ccc([C@@H]3[C@@H](CO)N4CCCCN(C(=O)c5cccnc5)C[C@@H]34)cc2)c1` [compound 296], the “Average Z-score” value [1, 3] was −3.25 and the IC50 [2] was greater than 100 µM.

In the case of `Cc1cccc(-c2ccc([C@@H]3[C@H]4CN(C(=O)c5ccncc5)CCCCN4[C@H]3CO)cc2)c1` [compound 316], the “Average Z-score” value [1, 3] is reported as −16.96 and the IC50 [2] is reported as greater than 10 µM.

`Cc1ccccc1-c1ccc([C@H]2[C@H](CO)N3C(=O)CN(C(=O)Cc4ccccn4)C[C@@H]23)cc1` [compound 321] was tested, and the “Average Z-score” value [1, 3] was −17.72 and the Emax [2, 4] was 50%.

For `Cc1cccc(-c2ccc([C@@H]3[C@@H](CO)N4CCCCN(S(=O)(=O)c5cn(C)cn5)C[C@@H]34)cc2)c1` [compound 342], the “Average Z-score” value [1, 3] was −17.53, the IC50 [2] was 0.6 µM and the Emax [2, 4] was 50%.

For `Cc1cccc(-c2ccc([C@@H]3[C@@H](CO)N4C(=O)CN(C(=O)Cc5ccccn5)C[C@@H]34)cc2)c1` [compound 348], the “Average Z-score” value [1, 3] was −11.8, the IC50 [2] was 7 µM and the Emax [2, 4] was 40%.

With `Cc1ccccc1-c1ccc([C@@H]2[C@@H](CO)N3CCCCN(C(=O)c4cccnc4)C[C@@H]23)cc1` [compound 353] the “Average Z-score” value [1, 3] was −7.98 and the Emax [2, 4] was 50%.

`Cc1ccccc1-c1ccc([C@H]2[C@@H](CO)N3CCCCN(C(=O)c4cccnc4)C[C@H]23)cc1` [compound 397] was tested, and the “Average Z-score” value [1, 3] was −11.37 and the “Imax (%) Proteolysis (inhibition maximum)” value [2, 4] was 70%.

In the case of `CCS(=O)(=O)N1CCCCN2[C@H](CO)[C@@H](c3ccc(-c4ccccc4C)cc3)[C@@H]2C1` [compound 416], the “Average Z-score” value [1, 3] is reported as −18.29 and the Emax [2, 4] is reported as 60%.
